# Assays:
# [1] = test system: normal NK cells expanded with K562-aAPC; assay: drug sensitivity score (DSS) (DSS units); higher = more sensitive; extreme values may be limits of the assay; settings: 72 h; IL-2 2.5 ng/mL
# Description: (§1)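 Drug sensitivity and resistance testing on K562-aAPC-expanded normal NK cells: 5 concentrations (10-fold steps over a 10,000-fold range), 72 h at 37 °C, viability by CellTiter-Glo normalised to DMSO and benzethonium chloride controls; DSS from the fitted curve.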
# [2] = test system: NK-92 (IL-2 2.5 ng/mL); assay: as above; settings: 72 h
# [3] = test system: IMC-1 (IL-2 20 ng/mL); assay: as above; settings: 72 h
# [4] = test system: KHYG-1 (IL-2 2.5 ng/mL); assay: as above; settings: 72 h
# [5] = test system: KAI3 (IL-2 2.5 ng/mL); assay: as above; settings: 72 h
# [6] = test system: normal primary NK cells, pool 3 (3 donors) (IL-2 2.5 ng/mL); assay: as above; settings: 72 h
# [7] = test system: normal primary NK cells, pool 2 (3 donors) (IL-2 2.5 ng/mL); assay: as above; settings: 72 h
# [8] = test system: normal primary NK cells, pool 1 (3 donors), resting (IL-2 0 ng/mL); assay: as above; settings: 72 h
# [9] = test system: YT (IL-2 2.5 ng/mL); assay: as above; settings: 72 h
# [10] = test system: NKL (IL-2 2.5 ng/mL); assay: as above; settings: 72 h
# [11] = test system: SNK-6 (IL-2 2.5 ng/mL); assay: as above; settings: 72 h
# [12] = test system: NK-YS (IL-2 2.5 ng/mL); assay: as above; settings: 72 h
# [13] = test system: normal primary NK cells, pool 1 (3 donors) (IL-2 2.5 ng/mL); assay: as above; settings: 72 h
# [14] = test system: DERL-7 (IL-2 2.5 ng/mL); assay: as above; settings: 72 h
# [15] = test system: NK-92 (IL-2 2.5 ng/mL); assay: percent inhibition of viability; higher = more inhibition; settings: 72 h
# [16] = test system: IMC-1 (IL-2 20 ng/mL); assay: as above; settings: 72 h
# [17] = test system: KHYG-1 (IL-2 2.5 ng/mL); assay: as above; settings: 72 h
# [18] = test system: KAI3 (IL-2 2.5 ng/mL); assay: as above; settings: 72 h
# [19] = test system: normal primary NK cells, pool 3 (3 donors) (IL-2 2.5 ng/mL); assay: as above; settings: 72 h
# [20] = test system: normal primary NK cells, pool 2 (3 donors) (IL-2 2.5 ng/mL); assay: as above; settings: 72 h
# [21] = test system: normal primary NK cells, pool 1 (3 donors), resting (IL-2 0 ng/mL); assay: as above; settings: 72 h
# [22] = test system: YT (IL-2 2.5 ng/mL); assay: as above; settings: 72 h
# [23] = test system: NKL (IL-2 2.5 ng/mL); assay: as above; settings: 72 h
# [24] = test system: SNK-6 (IL-2 2.5 ng/mL); assay: as above; settings: 72 h
# [25] = test system: NK-YS (IL-2 2.5 ng/mL); assay: as above; settings: 72 h
# [26] = test system: normal primary NK cells, pool 1 (3 donors) (IL-2 2.5 ng/mL); assay: as above; settings: 72 h
# [27] = test system: DERL-7 (IL-2 2.5 ng/mL); assay: as above; settings: 72 h
# [28] = test system: normal NK cells expanded with K562-aAPC; assay: as above; settings: 72 h, IL-2 2.5 ng/mL
# Description: as §1
structure (smiles),measurement,setting,value
C[C@@H](Oc1cc(-n2cnc3ccc(CN4CCN(C)CC4)cc32)sc1C(N)=O)c1ccccc1C(F)(F)F (max concentration tested 10000 nM),drug sensitivity score,[1],19.8
same,drug sensitivity score,[2],38.4
same,drug sensitivity score,[3],29.6
same,drug sensitivity score,[4],33.8
same,drug sensitivity score,[5],19.3
same,drug sensitivity score,[6],7.17
same,drug sensitivity score,[7],8.79
same,drug sensitivity score,[8],15.5
same,drug sensitivity score,[9],27.5
same,drug sensitivity score,[10],27.8
same,drug sensitivity score,[11],27.6
same,drug sensitivity score,[12],23.1
same,drug sensitivity score,[13],8.55
same,drug sensitivity score,[14],31.2
same,percent inhibition of viability,[15]; 1 nM,-10.3%
same,percent inhibition of viability,[15]; 10 nM,68.8%
same,percent inhibition of viability,[15]; 100 nM,96.9%
same,percent inhibition of viability,[15]; 1000 nM,98.4%
same,percent inhibition of viability,[15]; 10000 nM,108%
same,percent inhibition of viability,[16]; 1 nM,-5.44%
same,percent inhibition of viability,[16]; 10 nM,-5.88%
same,percent inhibition of viability,[16]; 100 nM,96.8%
same,percent inhibition of viability,[16]; 1000 nM,98%
same,percent inhibition of viability,[16]; 10000 nM,99.8%
same,percent inhibition of viability,[17]; 1 nM,-6.87%
same,percent inhibition of viability,[17]; 10 nM,20.7%
same,percent inhibition of viability,[17]; 100 nM,99%
same,percent inhibition of viability,[17]; 1000 nM,104%
same,percent inhibition of viability,[17]; 10000 nM,109%
same,percent inhibition of viability,[18]; 1 nM,-0.2%
same,percent inhibition of viability,[18]; 10 nM,19.3%
same,percent inhibition of viability,[18]; 100 nM,57.2%
same,percent inhibition of viability,[18]; 1000 nM,46.8%
same,percent inhibition of viability,[18]; 10000 nM,103%
same,percent inhibition of viability,[19]; 1 nM,-0.27%
same,percent inhibition of viability,[19]; 10 nM,-3.72%
same,percent inhibition of viability,[19]; 100 nM,15.8%
same,percent inhibition of viability,[19]; 1000 nM,9.91%
same,percent inhibition of viability,[19]; 10000 nM,100%
same,percent inhibition of viability,[20]; 1 nM,-4.17%
same,percent inhibition of viability,[20]; 10 nM,-1.65%
same,percent inhibition of viability,[20]; 100 nM,6.09%
same,percent inhibition of viability,[20]; 1000 nM,21.6%
same,percent inhibition of viability,[20]; 10000 nM,97.1%
same,percent inhibition of viability,[21]; 1 nM,15.5%
same,percent inhibition of viability,[21]; 10 nM,24.8%
same,percent inhibition of viability,[21]; 100 nM,22.1%
same,percent inhibition of viability,[21]; 1000 nM,54.6%
same,percent inhibition of viability,[21]; 10000 nM,96.9%
same,percent inhibition of viability,[22]; 1 nM,-6.84%
same,percent inhibition of viability,[22]; 10 nM,0.54%
same,percent inhibition of viability,[22]; 100 nM,79.4%
same,percent inhibition of viability,[22]; 1000 nM,64%
same,percent inhibition of viability,[22]; 10000 nM,108%
same,percent inhibition of viability,[23]; 1 nM,-22.4%
same,percent inhibition of viability,[23]; 10 nM,10.7%
same,percent inhibition of viability,[23]; 100 nM,76.8%
same,percent inhibition of viability,[23]; 1000 nM,76.5%
same,percent inhibition of viability,[23]; 10000 nM,107%
same,percent inhibition of viability,[24]; 1 nM,-6.84%
same,percent inhibition of viability,[24]; 10 nM,54.4%
same,percent inhibition of viability,[24]; 100 nM,70.9%
same,percent inhibition of viability,[24]; 1000 nM,60.5%
same,percent inhibition of viability,[24]; 10000 nM,100%
same,percent inhibition of viability,[25]; 1 nM,-6.78%
same,percent inhibition of viability,[25]; 10 nM,7.77%
same,percent inhibition of viability,[25]; 100 nM,68.5%
same,percent inhibition of viability,[25]; 1000 nM,63.2%
same,percent inhibition of viability,[25]; 10000 nM,107%
same,percent inhibition of viability,[26]; 1 nM,-0.02%
same,percent inhibition of viability,[26]; 10 nM,-2.73%
same,percent inhibition of viability,[26]; 100 nM,1.92%
same,percent inhibition of viability,[26]; 1000 nM,18.8%
same,percent inhibition of viability,[26]; 10000 nM,99.3%
same,percent inhibition of viability,[27]; 1 nM,-5.05%
same,percent inhibition of viability,[27]; 10 nM,5.6%
same,percent inhibition of viability,[27]; 100 nM,99%
same,percent inhibition of viability,[27]; 1000 nM,97.7%
same,percent inhibition of viability,[27]; 10000 nM,101%
same,percent inhibition of viability,[28]; 1 nM,-4.93%
same,percent inhibition of viability,[28]; 10 nM,10.2%
same,percent inhibition of viability,[28]; 100 nM,55.8%
same,percent inhibition of viability,[28]; 1000 nM,59.8%
same,percent inhibition of viability,[28]; 10000 nM,101%
Cc1ccccc1C(C(=O)NC1CCCCC1)N(C(=O)Cn1ccnc1C)c1cccc(F)c1 (stereo not drawn) [AGI-5198] (max concentration tested 10000 nM),drug sensitivity score,[1],0
same,drug sensitivity score,[2],0.01
same,drug sensitivity score,[3],0
same,drug sensitivity score,[4],0
same,drug sensitivity score,[5],0
same,drug sensitivity score,[6],0
same,drug sensitivity score,[7],0
same,drug sensitivity score,[8],0
same,drug sensitivity score,[9],0
same,drug sensitivity score,[10],0.33
same,drug sensitivity score,[11],0.54
same,drug sensitivity score,[12],0.18
same,drug sensitivity score,[13],0
same,drug sensitivity score,[14],0
same,percent inhibition of viability,[15]; 1 nM,-13.7%
same,percent inhibition of viability,[15]; 10 nM,-5.86%
same,percent inhibition of viability,[15]; 100 nM,2.38%
same,percent inhibition of viability,[15]; 1000 nM,-10.7%
same,percent inhibition of viability,[15]; 10000 nM,12.8%
same,percent inhibition of viability,[16]; 1 nM,-3.01%
same,percent inhibition of viability,[16]; 10 nM,0.83%
same,percent inhibition of viability,[16]; 100 nM,3.36%
same,percent inhibition of viability,[16]; 1000 nM,-0.42%
same,percent inhibition of viability,[16]; 10000 nM,6.36%
same,percent inhibition of viability,[17]; 1 nM,2.51%
same,percent inhibition of viability,[17]; 10 nM,1.12%
same,percent inhibition of viability,[17]; 100 nM,2.9%
same,percent inhibition of viability,[17]; 1000 nM,0.31%
same,percent inhibition of viability,[17]; 10000 nM,10.8%
same,percent inhibition of viability,[18]; 1 nM,1.08%
same,percent inhibition of viability,[18]; 10 nM,-2.21%
same,percent inhibition of viability,[18]; 100 nM,4.4%
same,percent inhibition of viability,[18]; 1000 nM,-7.93%
same,percent inhibition of viability,[18]; 10000 nM,5.53%
same,percent inhibition of viability,[19]; 1 nM,-10%
same,percent inhibition of viability,[19]; 10 nM,-4.39%
same,percent inhibition of viability,[19]; 100 nM,-0.6%
same,percent inhibition of viability,[19]; 1000 nM,2.48%
same,percent inhibition of viability,[19]; 10000 nM,5.96%
same,percent inhibition of viability,[20]; 1 nM,-13.6%
same,percent inhibition of viability,[20]; 10 nM,-0.73%
same,percent inhibition of viability,[20]; 100 nM,3.47%
same,percent inhibition of viability,[20]; 1000 nM,6.75%
same,percent inhibition of viability,[20]; 10000 nM,9.8%
same,percent inhibition of viability,[21]; 1 nM,7.51%
same,percent inhibition of viability,[21]; 10 nM,-9.12%
same,percent inhibition of viability,[21]; 100 nM,-0.43%
same,percent inhibition of viability,[21]; 1000 nM,-14.1%
same,percent inhibition of viability,[21]; 10000 nM,-4.43%
same,percent inhibition of viability,[22]; 1 nM,0.66%
same,percent inhibition of viability,[22]; 10 nM,2.4%
same,percent inhibition of viability,[22]; 100 nM,5.93%
same,percent inhibition of viability,[22]; 1000 nM,3.4%
same,percent inhibition of viability,[22]; 10000 nM,10.8%
same,percent inhibition of viability,[23]; 1 nM,-11.8%
same,percent inhibition of viability,[23]; 10 nM,5.55%
same,percent inhibition of viability,[23]; 100 nM,4.44%
same,percent inhibition of viability,[23]; 1000 nM,6.62%
same,percent inhibition of viability,[23]; 10000 nM,15.3%
same,percent inhibition of viability,[24]; 1 nM,8.4%
same,percent inhibition of viability,[24]; 10 nM,14.1%
same,percent inhibition of viability,[24]; 100 nM,-2.27%
same,percent inhibition of viability,[24]; 1000 nM,3.58%
same,percent inhibition of viability,[24]; 10000 nM,14.7%
same,percent inhibition of viability,[25]; 1 nM,1.52%
same,percent inhibition of viability,[25]; 10 nM,-1.9%
same,percent inhibition of viability,[25]; 100 nM,7.02%
same,percent inhibition of viability,[25]; 1000 nM,-2.36%
same,percent inhibition of viability,[25]; 10000 nM,15.5%
same,percent inhibition of viability,[26]; 1 nM,-4.32%
same,percent inhibition of viability,[26]; 10 nM,-10.5%
same,percent inhibition of viability,[26]; 100 nM,-2.82%
same,percent inhibition of viability,[26]; 1000 nM,-8.59%
same,percent inhibition of viability,[26]; 10000 nM,-1.32%
same,percent inhibition of viability,[27]; 1 nM,-2.01%
same,percent inhibition of viability,[27]; 10 nM,0.12%
same,percent inhibition of viability,[27]; 100 nM,2.86%
same,percent inhibition of viability,[27]; 1000 nM,4.19%
same,percent inhibition of viability,[27]; 10000 nM,4.9%
same,percent inhibition of viability,[28]; 1 nM,-2.75%
same,percent inhibition of viability,[28]; 10 nM,-1.08%
same,percent inhibition of viability,[28]; 100 nM,-4.23%
same,percent inhibition of viability,[28]; 1000 nM,1.75%
same,percent inhibition of viability,[28]; 10000 nM,3.84%
